Patent US20240132498A1, “CRYSTALLINE FORMS OF 5-(3,4-DIFLUOROBENZYL)-8-((1R,4R)-4-METHYLCYCLOHEXYL)-6,9-DIOXO-2,5,8-TRIAZASPIRO[3.5]NONANE-2-CARBALDEHYDE” (Cytokinetics, Incorporated, priority 2022, published 2024)

Assay: Dog cassette dosing IV pharmacokinetics
Type: in vivo
Settings: plasma, male beagle dogs
Method: Non-naïve male beagle dogs (8 months to 3 years of age, body weight 8-14 kg) sourced from Jiangsu Johnsen Bioresource CO. and/or Beijing Rixinkeji CO., LTD and/or Beijing Marshall Biotechnology CO., LTD were used in this study. All animals for IV administration had free access to food and water. The IV dose solution was prepared in 10% DMA/50% PG/40% HP0CD solution (40% w/v aqueous HP0CD) at a concentration of 0.2 mg/mL. Concentrations of IV dose was measured at the end of the study. PK parameters were calculated using the nominal dose values if the measured values were within 20% of the nominal values. Blood samples were collected by venipuncture of peripheral veins except the dosing vein at pre-dose, 5 15, 30 min, 1, 2, 4, 6, 8 and 24 h post-dose. Blood samples were centrifuged and resultant plasma was frozen for bioanalysis. Plasma samples were stored at −80° C. before analysis. Plasma samples were analyzed for compound concentrations using the LC/MS/MS method. Briefly, a 50 p L aliquot of each plasma sample was mixed with 100 μL of acetonitrile that contained an internal standard. The mixture was vortexed and centrifuged. Ten (10) μL of the resulting solution was injected onto a reverse-phase C18 column and the resultant peaks detected on a LC/MS/MS equipped with a turbo ionspray ionization source. Sample concentrations below the limit of quantification (BLQ) were treated as zero for PK calculations. […] The elimination rate constant (k) was calculated as the absolute value of the slope of the linear regression of logarithm (log) of the concentration versus time for the last three data points of the concentration-time profiles. Apparent elimination half-life (t½) values were calculated as 1n(2)/k. […] AUC values were calculated from the dosing time to the last measurable concentration. AUC∞ values were calculated as the sum of the corresponding AUC and the ratio of the last detectable concentration divided by k. Plasma clearance (CL) was calculated from Dose/AUC.. […] Vss was calculated from MRT∞×CL. Maximum concentration (Cmax) and time to reach Cmax (tmax) were recorded as observed. […]

`C[C@H]1CC[C@H](N2CC(=O)N(Cc3ccc(F)c(F)c3)C3(CN(C=O)C3)C2=O)CC1` [Compound 1, 5-(3,4-difluorobenzyl)-8-((1r,4r)-4-methylcyclohexyl)-6,9-dioxo-2,5,8-triazaspiro[3.5]nonane-2-carbaldehyde] gave a clearance of 5.12 mL/min/kg, a half-life of 11.8 h and a Vd (read-out: Vss) of 4.48 L/kg.
